Experiments:
[1] = test system: Candida tropicalis; test: Fungicidal activity, large-scale test on contaminated surfaces and fabrics; format: cell-based; conditions: composition 0.01 % by mass; surfaces of ceramics, metal, wood, rubber, fabrics
Procedure: (§1) The large-scale tests were carried out by using Candida albicans and Candida tropicalis strains 2-day culture of which was diluted with an isotonic solution of sodium chloride to the concentration of 5x10^7 cells in 1 ml.
(§2) The suspended cell culture was applied onto the surface (7 mm in diameter) of articles made of ceramics, metal, wood and rubber as well as cotton, flannel woollen fabrics which were presterillized.
(§3) In a day after incubating from the treated surfaces, the washings were taken with a cotton-gauze tampon wetted with Sabouraud^ts liquid medium, immersed into the tubes with a similar medium and placed into a thermostat at 37 °C for two days. Thereafter, the inoculum was introduced in Sabouraud's stiff agar, and the growth records were made by a conventional procedure.

[2] = test system: Candida albicans; test: as above; format: cell-based; conditions: composition 0.01 % by mass; surfaces of ceramics, metal, wood, rubber, fabrics
Procedure: as §1, §2, §3

[3] = test system: Candida albicans; test: Fungicidal activity, laboratory test on Sabouraud medium; format: cell-based; conditions: composition 0.01 % by mass in distilled water
[4] = Solubility (qualitative); conditions: water, alcohols, acetone
[5] = test system: Candida tropicalis; test: Fungicidal activity, laboratory test on Sabouraud medium; format: cell-based; conditions: composition 0.01 % by mass in distilled water
Procedure: A fungicidal composition based on this compound was prepared which was a solution of it in distilled water at the concentration pf 0.01 % by mass. A fungicidal activity of the composition, according to the invention, was tested in laboratory conditions for inhibiting the growth of fungi such as Candida tropicalis affecting the macosal and skin coats, and internals.
To this, the Petri dishes containing the Sabouraud growth medium were inoculated with a suspension of microorganisms at the concentration of 5x10^7 cells of fungi in 1 ml.
The restricted surface areas (7 mm in diameter) were coated with the composition by means of a small metal spatula 4x4 mm in size. In a day of incubating at 37 °C in a thermostat, the composition inhibited the growth of yeast--like fungi. An antifungal activity of the composition was specified by a method of 10-fold serial dilution using Sabouraud's liquid medium in 2 ml of which 2x10^5 cells were introduced. After two days of incubation in the thermostat at 34 °C, a minimum dilution of the substance exerting a fungicidal effect was determined.

[6] = test system: gall nematodes; test: Nematocidal effect, field test on affected tomato plants; format: in vivo; conditions: 5 m^2 plots of tomato plants affected by nematodes
Procedure: In the field conditions, the plots of 5 m^2 in size of tomato plants affected by nematodes were treated with the claimed nematocidal compositions and the known nematocides.

[7] = test system: invasion larvae of gall nematodes; test: Nematocidal effect on invasion larvae, experimental (object glass) test; format: in vivo; conditions: 1% solution in distilled water; 100 invasion larvae; 24 hours
Procedure: A nematocidal effect of the composition, according to the invention, was tested on invasion larvae of gall nematodes. To this end, 1 droplet of a suspension containing 100 invasion larvae of gall nematodes was placed onto the object glasses with cells. 1 droplet of the composition of the invention was added thereinto. 1 drop of distilled water was added to the control cell instead of the composition, according to the invention. The glasses with test and control cells were placed onto Petri dish with a moisten ashless filter, and 24 hours later the killed nematodes were recorded. The tests were 3-fold repeated. The study of a nematocidal activity was conducted in comparison with a known nematocidal composition based on 0,0-dimethyl-0-/2-(N,N'-diethylcarbamoyl)-1-methyl-2-chlorovinyl/ /phosphate.

[8] = test system: leaves of tomato and cucumber; test: Phytotoxic effect on leaves; format: in vivo; conditions: nematocidal composition, 1% solution in distilled water
[9] = test system: Fusarium moniliforme; test: Inhibition of phytopathogenic fungi growth, laboratory test on potato-dextrose agar; format: cell-based; conditions: active principle 0.01 % by mass in potato-dextrose agar
Summary of the method: (§4)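 Growth inhibition was scored against control dishes of untreated potato-dextrose agar. The test dishes carried the active principle at 0.01% by mass, given as a 0.01% aqueous solution, and both sets were seeded with fungal mycelium.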

[10] = test system: Aspergillus fumigatis; test: as above; format: cell-based; conditions: active principle 0.01 % by mass in potato-dextrose agar
Summary of the method: as §4

[11] = test system: Fusarium oxysporum; test: as above; format: cell-based; conditions: active principle 0.01 % by mass in potato-dextrose agar
Summary of the method: as §4

[12] = test system: Aspergillus niger; test: as above; format: cell-based; conditions: active principle 0.01 % by mass in potato-dextrose agar
Summary of the method: as §4

[13] = test system: Rhoma betae; test: as above; format: cell-based; conditions: active principle 0.01 % by mass in potato-dextrose agar
Summary of the method: as §4

[14] = test system: Botrytis allii; test: as above; format: cell-based; conditions: active principle 0.01 % by mass in potato-dextrose agar
Summary of the method: as §4

[15] = test system: Venturia inaequalis; test: as above; format: cell-based; conditions: active principle 0.01 % by mass in potato-dextrose agar
Summary of the method: as §4

[16] = test system: Rhyzoctonia violaceae; test: as above; format: cell-based; conditions: active principle 0.01 % by mass in potato-dextrose agar
Summary of the method: as §4

[17] = test system: Diplodia zeae; test: as above; format: cell-based; conditions: active principle 0.01 % by mass in potato-dextrose agar
Summary of the method: as §4

[18] = test system: Verticillium albo-atrum; test: as above; format: cell-based; conditions: active principle 0.01 % by mass in potato-dextrose agar
Summary of the method: as §4

[19] = test system: Rhyzoctonia aderholdii; test: as above; format: cell-based; conditions: active principle 0.01 % by mass in potato-dextrose agar
Summary of the method: as §4

[20] = test system: Fusarium culmorum; test: as above; format: cell-based; conditions: active principle 0.01 % by mass in potato-dextrose agar
Summary of the method: as §4

[21] = test system: Penicillium cyclopium; test: as above; format: cell-based; conditions: active principle 0.01 % by mass in potato-dextrose agar
Summary of the method: as §4

[22] = test system: Alternaria sobani; test: as above; format: cell-based; conditions: active principle 0.01 % by mass in potato-dextrose agar
Summary of the method: as §4

[23] = test system: Botrytis cinereae; test: as above; format: cell-based; conditions: active principle 0.01 % by mass in potato-dextrose agar
Summary of the method: as §4

[24] = test system: Fusarium moniliforme; test: Inhibition of phytopathogenic fungi, field test on affected potato plants; format: in vivo; conditions: 5 m^2 plots of affected potato plants sprayed
Summary of the method: (§5)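 Field plots, 5 m^2, infected potato plants; spray application of test fungicide; reference plots treated with known compositions.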

[25] = test system: Aspergillus fumigatis; test: as above; format: in vivo; conditions: 5 m^2 plots of affected potato plants sprayed
Summary of the method: as §5

[26] = test system: Fusarium oxysporum; test: as above; format: in vivo; conditions: 5 m^2 plots of affected potato plants sprayed
Summary of the method: as §5

[27] = test system: Aspergillus niger; test: as above; format: in vivo; conditions: 5 m^2 plots of affected potato plants sprayed
Summary of the method: as §5

[28] = test system: Rhoma betae; test: as above; format: in vivo; conditions: 5 m^2 plots of affected potato plants sprayed
Summary of the method: as §5

[29] = test system: Botrytis allii; test: as above; format: in vivo; conditions: 5 m^2 plots of affected potato plants sprayed
Summary of the method: as §5

[30] = test system: Venturia inaequalis; test: as above; format: in vivo; conditions: 5 m^2 plots of affected potato plants sprayed
Summary of the method: as §5

[31] = test system: Rhyzoctonia violaceae; test: as above; format: in vivo; conditions: 5 m^2 plots of affected potato plants sprayed
Summary of the method: as §5

[32] = test system: Diplodia zeae; test: as above; format: in vivo; conditions: 5 m^2 plots of affected potato plants sprayed
Summary of the method: as §5

[33] = test system: Verticillium albo-atrum; test: as above; format: in vivo; conditions: 5 m^2 plots of affected potato plants sprayed
Summary of the method: as §5

[34] = test system: Rhyzoctonia aderholdii; test: as above; format: in vivo; conditions: 5 m^2 plots of affected potato plants sprayed
Summary of the method: as §5

[35] = test system: Fusarium culmorum; test: as above; format: in vivo; conditions: 5 m^2 plots of affected potato plants sprayed
Summary of the method: as §5

[36] = test system: Penicillium cyclopium; test: as above; format: in vivo; conditions: 5 m^2 plots of affected potato plants sprayed
Summary of the method: as §5

[37] = test system: Alternaria sobani; test: as above; format: in vivo; conditions: 5 m^2 plots of affected potato plants sprayed
Summary of the method: as §5

[38] = test system: Botrytis cinereae; test: as above; format: in vivo; conditions: 5 m^2 plots of affected potato plants sprayed
Summary of the method: as §5

[39] = Toxicity LD50 of the compound; format: in vivo; conditions: species and route not given
[40] = test system: mice and rats; conditions: for mice and rats; cited from earlier work

## O=C(NP(=O)(NNc1ccccc1)NNc1ccccc1)c1ccc(Cl)cc1 [Example 10, para--chlorobenzoylamidophosphoric acid diphenyl hydrazide]
[1]
  Inhibition of growth of fungal colonies, % Candida tropicalis tests large-scale: 100%
[2]
  Inhibition of growth of fungal colonies, % Candida albicans tests large-scale: 100%
[3]
  Inhibition of growth of fungal colonies, % Candida albicans tests laboratory: 100%
[4]
  solubility: soluble in water, alcohols, acetone
[5]
  Inhibition of growth of fungal colonies, % Candida tropicalis tests laboratory: 0%

## O=C(NP(=O)(Nc1ccc(Cl)cc1)Nc1ccc(Cl)cc1)c1ccc(Br)cc1 [Example 18, para-bromobenzoylamidophosphoric acid di-para-chloroanilide]
[6]
  Death of larvae, %, conditions field: 92%
[7]
  Death of larvae, %, conditions experimental: 89%
[4]
  solubility: soluble in water, alcohols, acetone

## O=C(NP(=O)(Nc1ccccc1Cl)Nc1ccccc1Cl)c1ccc(Br)cc1 [Example 17, para-bromobenzoylamidophosphoric acid di-ortho-chloroanilide]
[6]
  Death of larvae, %, conditions field: 100%
[7]
  Death of larvae, %, conditions experimental: 100%
[8]
  phytotoxical effect on leaves of tomato and cucumber: no phytotoxical effect
[4]
  solubility: soluble in water, alcohols, acetone

## O=C(NP(=O)(Nc1ccc(Cl)cc1[N+](=O)[O-])Nc1ccc(Cl)cc1[N+](=O)[O-])c1ccc(Br)cc1 [Example 16, para-bromobenzoylamidophosphoric acid di-para-chloro-ortho--nitroanilide]
[9]
  Inhibition of growth of phytopathogenic fungi colonies, % Fusatium monili-forme test laboratory: 74%
[10]
  Inhibition of growth of phytopathogenic fungi colonies, % Aspergillus fumigatis Tests laboratory: 92%
[11]
  Inhibition of growth of phytopathogenic fungi colonies, % Fusarium oxysporum test laboratory: 98%
[12]
  Inhibition of growth of phytopathogenic fungi colonies, % Aspergillus niger test laboratory: 100%
[13]
  Inhibition of growth of phytopathogenic fungi colonies, % Rhoma betae test laboratory: 100%
[14]
  Inhibition of growth of phytopathogenic fungi colonies, % Botrytis allii test laboratory: 100%
[15]
  Inhibition of growth of phytopathogenic fungi colonies, % Venturia inaequalis test laboratory: 100%
[16]
  Inhibition of growth of phytopathogenic fungi colonies, % Rhyzoctonia violaceae test laboratory: 87%
[17]
  Inhibition of growth of phytopathogenic fungi colonies, % Diplodia zeae test laboratory: 100%
[18]
  Inhibition of growth of phytopathogenic fungi colonies, % Verticillium albo--atrum test laboratory: 100%
[19]
  Inhibition of growth of phytopathogenic fungi colonies, % Rhyzoctonia aderholdii test laboratory: 100%
[20]
  Inhibition of growth of phytopathogenic fungi colonies, % Fusarium culmorum Tests laboratory: 100%
[21]
  Inhibition of growth of phytopathogenic fungi colonies, % Penicillium cyclopium Tests laboratory: 80%
[22]
  Inhibition of growth of phytopathogenic fungi colonies, % Alternaria sobani test laboratory: 100%
[23]
  Inhibition of growth of phytopathogenic fungi colonies, % Botrytis cinereae test laboratory: 100%
[24]
  Inhibition of growth of phytopathogenic fungi colonies, % Fusatium monili-forme test field: 73%
[25]
  Inhibition of growth of phytopathogenic fungi colonies, % Aspergillus fumigatis Tests field: 91%
[26]
  Inhibition of growth of phytopathogenic fungi colonies, % Fusarium oxysporum test field: 97%
[27]
  Inhibition of growth of phytopathogenic fungi colonies, % Aspergillus niger test field: 100%
[28]
  Inhibition of growth of phytopathogenic fungi colonies, % Rhoma betae test field: 99%
[29]
  Inhibition of growth of phytopathogenic fungi colonies, % Botrytis allii test field: 100%
[30]
  Inhibition of growth of phytopathogenic fungi colonies, % Venturia inaequalis test field: 100%
[31]
  Inhibition of growth of phytopathogenic fungi colonies, % Rhyzoctonia violaceae test field: 86%
[32]
  Inhibition of growth of phytopathogenic fungi colonies, % Diplodia zeae test field: 100%
[33]
  Inhibition of growth of phytopathogenic fungi colonies, % Verticillium albo--atrum test field: 100%
[34]
  Inhibition of growth of phytopathogenic fungi colonies, % Rhyzoctonia aderholdii test field: 100%
[35]
  Inhibition of growth of phytopathogenic fungi colonies, % Fusarium culmorum Tests field: 99%
[36]
  Inhibition of growth of phytopathogenic fungi colonies, % Penicillium cyclopium Tests field: 79%
[37]
  Inhibition of growth of phytopathogenic fungi colonies, % Alternaria sobani test field: 98%
[38]
  Inhibition of growth of phytopathogenic fungi colonies, % Botrytis cinereae test field: 100%
[4]
  solubility: soluble in water, alcohols, acetone

## O=C(NP(=O)(Sc1ccc(Cl)cc1)Sc1ccc(Cl)cc1)C(Cl)(Cl)CCl [Example 9, di--para-chlorothiophenyl ether of α, α,β-trichloropropio- nylamidophosphoric acid]
[39]
  LD50: 670 ml/k^g
[1]
  Inhibition of growth of fungal colonies, % Candida tropicalis tests large-scale: 100%
[2]
  Inhibition of growth of fungal colonies, % Candida albicans tests large-scale: 100%
[3]
  Inhibition of growth of fungal colonies, % Candida albicans tests laboratory: 100%
[4]
  solubility: soluble in water, alcohols, acetone
[5]
  Inhibition of growth of fungal colonies, % Candida tropicalis tests laboratory: 100%

## COP(=O)(OC)C(O)C(Cl)(Cl)Cl (centres unmarked) [Known composition, 0,0-dimethyl(1-hydroxy-2,2,2-trichloroethyl)phosphonate]
[40]
  LD50: 225 to 1200 mg/kg

Reference: patent EP0407583A1, “DERIVATIVES OF DICHLOR[…] ACYLAMIDO[…] AND INSECTICIDAL, FU[…] HEMATOCIDAL PREPARATIONS BASED ON THEM” (priority 1989, dated 1990)
